In brackets after ≈: the same amount, converted by molar mass.
Key:
P. cepacia 23 = test: MIC, agar plate dilution method; assay type: cell-based, Pseudomonas cepacia; conditions: for MIC: Burkholderia cepacia, P. cepacia 23, 10^6 CFU/ml, Sensitivity Disk Agar, read-out: Minimum Inhibitory Concentration; for antibacterial activity relative to the compound of Reference Example: Pseudomonas cepacia 23
Method: (§1) The minimum inhibitory concentrations (MIC: μg/ml) of the compounds of the present invention against various microorganisms were measured by an agar plate dilution method (inoculum size: 10^6 CFU/ml) by using Sensitivity Disk Agar (Nissui) in comparison with Cefotaxime and Ceftazidime as comparative compounds.

P. aeruginosa AKR17 = test: MIC, agar plate dilution method; assay type: cell-based, Pseudomonas aeruginosa; conditions: for antibacterial activity relative to the compound of Reference Example: Pseudomonas aeruginosa AKR-17, resistant to all cephalosporins including Ceftazidime; for MIC: Pseudomonas aeruginosa, P. aeruginosa AKR17, 10^6 CFU/ml, Sensitivity Disk Agar, read-out: Minimum Inhibitory Concentration
Method: as §1

P. aeruginosa AK109 = test: MIC, agar plate dilution method; assay type: cell-based, Pseudomonas aeruginosa; conditions: for antibacterial activity relative to the compound of Reference Example: Pseudomonas aeruginosa AK109; for MIC: Pseudomonas aeruginosa, P. aeruginosa AK109, 10^6 CFU/ml, Sensitivity Disk Agar, read-out: Minimum Inhibitory Concentration
Method: as §1

[1] = test system: Gram-positive bacteria and Gram-negative bacteria; test: antibacterial activity, general statement; assay type: cell-based; conditions: sensitive and resistant bacteria
Method: as §1

P. maltophilia IID 1275 = test: MIC, agar plate dilution method; assay type: cell-based, Pseudomonas maltophilia; conditions: for antibacterial activity relative to the compound of Reference Example: Pseudomonas maltophilia resistant to all cephalosporins; for MIC: Stenotrophomonas maltophilia, IID1275, P. maltophilia IID 1275, 10^6 CFU/ml, Sensitivity Disk Agar, read-out: Minimum Inhibitory Concentration
Method: as §1

S. marcescens No. 16-2 = test: MIC, agar plate dilution method; assay type: cell-based; conditions: Serratia marcescens, NO.162; S. marcescens No. 16-2; 10^6 CFU/ml; Sensitivity Disk Agar; read-out: Minimum Inhibitory Concentration
Method: as §1

E. coli CSH2 = test: MIC, agar plate dilution method; assay type: cell-based; conditions: Escherichia coli, 10^6 CFU/ml, Sensitivity Disk Agar, read-out: Minimum Inhibitory Concentration
Method: as §1

P. vulgaris No. 33 = test: MIC, agar plate dilution method; assay type: cell-based; conditions: Proteus vulgaris; P. vulgaris No. 33; 10^6 CFU/ml; Sensitivity Disk Agar; read-out: Minimum Inhibitory Concentration
Method: as §1

E. coli CSH = test: MIC, agar plate dilution method; assay type: cell-based; conditions: Escherichia coli, read-out: Minimum Inhibitory Concentration
Method: as §1

C. freundii No. 7 = test: MIC, agar plate dilution method; assay type: cell-based; conditions: Citrobacter freundii; C. freundii No. 7; 10^6 CFU/ml; Sensitivity Disk Agar; read-out: Minimum Inhibitory Concentration
Method: as §1

S. aureus JS-1 = test: MIC, agar plate dilution method; assay type: cell-based; conditions: Staphylococcus aureus, JS1; S. aureus JS-1; 10^6 CFU/ml; Sensitivity Disk Agar; read-out: Minimum Inhibitory Concentration
Method: as §1

P. mirabilis JY10 = test: MIC, agar plate dilution method; assay type: cell-based; conditions: Proteus mirabilis; P. mirabilis JY10; 10^6 CFU/ml; Sensitivity Disk Agar; read-out: Minimum Inhibitory Concentration
Method: as §1

E. coli NIHJJC-2 = test: MIC, agar plate dilution method; assay type: cell-based; conditions: Escherichia coli, NIHJJC2; E. coli NIHJJC-2; 10^6 CFU/ml; Sensitivity Disk Agar; read-out: Minimum Inhibitory Concentration
Method: as §1

E. coli W3630/Rms213 = test: MIC, agar plate dilution method; assay type: cell-based; conditions: Escherichia coli, W3630/RMS213, read-out: Minimum Inhibitory Concentration
Method: as §1

E. coli ML1410/Rte16 = test: MIC, agar plate dilution method; assay type: cell-based; conditions: Escherichia coli, ML1410/RTE16, read-out: Minimum Inhibitory Concentration
Method: as §1

P. vulgaris OB1043 = test: MIC, agar plate dilution method; assay type: cell-based; conditions: Proteus vulgaris; P. vulgaris OB1043; 10^6 CFU/ml; Sensitivity Disk Agar; read-out: Minimum Inhibitory Concentration
Method: as §1

E. coli C/Rms149 = test: MIC, agar plate dilution method; assay type: cell-based; conditions: Escherichia coli, read-out: Minimum Inhibitory Concentration
Method: as §1

E. coli W3630/Rms212 = test: MIC, agar plate dilution method; assay type: cell-based; conditions: Escherichia coli, W3630/RMS212, read-out: Minimum Inhibitory Concentration
Method: as §1

K. pneumoniae No. 42 = test: MIC, agar plate dilution method; assay type: cell-based; conditions: Klebsiella pneumoniae; K. pneumoniae No. 42; 10^6 CFU/ml; Sensitivity Disk Agar; read-out: Minimum Inhibitory Concentration
Method: as §1

E. cloaceae Nek 39 = test: MIC, agar plate dilution method; assay type: cell-based; conditions: E. cloaceae Nek 39; 10^6 CFU/ml; Sensitivity Disk Agar; read-out: Minimum Inhibitory Concentration
Method: as §1

A. calcoaceticus No. 14 = test: MIC, agar plate dilution method; assay type: cell-based; conditions: Acinetobacter calcoaceticus; for MIC: A. calcoaceticus No. 14, 10^6 CFU/ml, Sensitivity Disk Agar, read-out: Minimum Inhibitory Concentration
Method: as §1

S. aureus NIHJJC-1 = test: MIC, agar plate dilution method; assay type: cell-based; conditions: Staphylococcus aureus, NIHJJC1; S. aureus NIHJJC-1; 10^6 CFU/ml; Sensitivity Disk Agar; read-out: Minimum Inhibitory Concentration
Method: as §1

Row | Compound | MIC (P. cepacia 23) | antibacterial activity relative to the compound of Reference Example (P. cepacia 23) | antibacterial activity relative to the compound of Reference Example (P. aeruginosa AKR17) | MIC (P. aeruginosa AKR17) | antibacterial activity relative to the compound of Reference Example (P. aeruginosa AK109) | MIC (P. aeruginosa AK109) | antibacterial activity (in words) [1] | antibacterial activity relative to the compound of Reference Example (P. maltophilia IID 1275) | MIC (P. maltophilia IID 1275) | MIC (S. marcescens No. 16-2) | MIC (E. coli CSH2) | MIC (P. vulgaris No. 33) | MIC (E. coli CSH) | MIC (C. freundii No. 7) | MIC (S. aureus JS-1) | MIC (P. mirabilis JY10) | MIC (E. coli NIHJJC-2) | MIC (E. coli W3630/Rms213) | MIC (E. coli ML1410/Rte16) | MIC (P. vulgaris OB1043) | further results
1 | CC(C)(ON=C(C(=O)NC1C(=O)N2C(C(=O)[O-])=C(C[N+]3(C)Cc4cc(O)c(O)cc4C3)CSC12)c1csc(N)n1)C(=O)O (stereo not drawn) [Ex. 7-E, 7-[(Z)-2-(2-aminothiazol-4-yl)-2-(1-carboxy-1-methylethoxyimino)acetamido]-3-(5,6-dihydroxy-methyl-2-methyl-2-isoindolinium)methyl-3-cephem-4-carboxylate] | ≤ 0.05 µg/mL | at least 32 times | at least 32 times | ≤ 0.05 µg/mL | at least 16 times | ≤ 0.05 µg/mL | particularly strong antibacterial activities | at least twice as strong | 3.12 µg/mL (≈ 4.93 µM) | 0.39 µg/mL (≈ 0.616 µM) | ≤ 0.05 µg/mL | 0.2 µg/mL (≈ 0.316 µM) | 0.1 µg/mL (≈ 0.158 µM) | 0.78 µg/mL (≈ 1.23 µM) | > 25 µg/mL | 0.1 µg/mL (≈ 0.158 µM) | ≤ 0.05 µg/mL | ≤ 0.05 µg/mL | ≤ 0.05 µg/mL | 0.1 µg/mL (≈ 0.158 µM) | MIC (E. coli C/Rms149): ≤ 0.05 µg/mL; MIC (E. coli W3630/Rms212): ≤ 0.05 µg/mL; MIC (K. pneumoniae No. 42): ≤ 0.05 µg/mL; MIC (E. cloaceae Nek 39): ≤ 0.05 µg/mL; antibacterial activity relative to the compound of Reference Example (A. calcoaceticus No. 14): at least 32 times; MIC (A. calcoaceticus No. 14): 0.1 µg/mL (≈ 0.158 µM); MIC (S. aureus NIHJJC-1): 25 µg/mL (≈ 39.5 µM)
2 | C[N+]1(CC2=C(C(=O)[O-])N3C(=O)C(NC(=O)C(=NOCC(=O)O)c4csc(N)n4)C3SC2)Cc2cc(O)c(O)cc2C1 (stereo not drawn) [Ex. 8-E, 7-[(Z)-2-(2-aminothiazol-4-yl)-2-carboxymethoxyimino)acetamido]-3-(5,6-dihydroxy-2-methyl-2-isoindolinium)methyl-3-cephem-4-carboxylate] | ≤ 0.05 µg/mL | at least 32 times | at least 32 times | 0.2 µg/mL (≈ 0.331 µM) | at least 16 times | ≤ 0.05 µg/mL | particularly strong antibacterial activities | at least twice as strong | 6.25 µg/mL (≈ 10.3 µM) | 0.78 µg/mL (≈ 1.29 µM) | ≤ 0.05 µg/mL | 0.1 µg/mL (≈ 0.165 µM) | 0.1 µg/mL (≈ 0.165 µM) | 0.78 µg/mL (≈ 1.29 µM) | > 25 µg/mL | 0.2 µg/mL (≈ 0.331 µM) | ≤ 0.05 µg/mL | ≤ 0.05 µg/mL | ≤ 0.05 µg/mL | 0.2 µg/mL (≈ 0.331 µM) | MIC (E. coli C/Rms149): ≤ 0.05 µg/mL; MIC (E. coli W3630/Rms212): ≤ 0.05 µg/mL; MIC (K. pneumoniae No. 42): ≤ 0.05 µg/mL; MIC (E. cloaceae Nek 39): ≤ 0.05 µg/mL; antibacterial activity relative to the compound of Reference Example (A. calcoaceticus No. 14): at least 32 times; MIC (A. calcoaceticus No. 14): ≤ 0.05 µg/mL; MIC (S. aureus NIHJJC-1): 12.5 µg/mL (≈ 20.7 µM)
3 | CC(C)ON=C(C(=O)NC1C(=O)N2C(C(=O)[O-])=C(C[N+]3(C)Cc4cc(O)c(O)cc4C3)CSC12)c1csc(N)n1 (stereo not drawn) [Ex. 9-C, 7-[(Z)-2-(2-aminothiazol-4-yl)-2-isopropoxyiminoacetamido]-3-(5,6-dihydroxy-2-methyl-2-isoindolinium) methyl-3-cephem-4-carboxylate] | ≤ 0.05 µg/mL | at least 32 times | at least 32 times | 0.39 µg/mL (≈ 0.663 µM) | at least 16 times | ≤ 0.05 µg/mL | particularly strong antibacterial activities | at least twice as strong | 3.12 µg/mL (≈ 5.3 µM) | 0.78 µg/mL (≈ 1.33 µM) | ≤ 0.05 µg/mL | 0.1 µg/mL (≈ 0.17 µM) | 0.1 µg/mL (≈ 0.17 µM) | 3.12 µg/mL (≈ 5.3 µM) | 12.5 µg/mL (≈ 21.2 µM) | 0.1 µg/mL (≈ 0.17 µM) | ≤ 0.05 µg/mL | ≤ 0.05 µg/mL | ≤ 0.05 µg/mL | 0.2 µg/mL (≈ 0.34 µM) | MIC (E. coli C/Rms149): ≤ 0.05 µg/mL; MIC (E. coli W3630/Rms212): ≤ 0.05 µg/mL; MIC (K. pneumoniae No. 42): 0.1 µg/mL (≈ 0.17 µM); MIC (E. cloaceae Nek 39): ≤ 0.05 µg/mL; antibacterial activity relative to the compound of Reference Example (A. calcoaceticus No. 14): at least 32 times; MIC (A. calcoaceticus No. 14): 0.2 µg/mL (≈ 0.34 µM); MIC (S. aureus NIHJJC-1): 6.25 µg/mL (≈ 10.6 µM)
4 | C[N+]1(CC2=C(C(=O)[O-])N3C(=O)C(NC(=O)C(=NOC4(C(=O)O)CC4)c4csc(N)n4)C3SC2)Cc2cc(O)c(O)cc2C1 (stereo not drawn) [Ex. 10-E, 7-[(Z)-2-(2-aminothiazol-4-yl)-2-(1-carboxy-1-cyclopropoxyimino)acetamido]-3-(5,6-dihydroxy-2-methyl-2-isoindolinium)methyl-3-cephem-4-carboxylate] | ≤ 0.05 µg/mL | at least 32 times | at least 32 times | 0.1 µg/mL (≈ 0.159 µM) | at least 16 times | ≤ 0.05 µg/mL | particularly strong antibacterial activities | at least twice as strong | 3.12 µg/mL (≈ 4.95 µM) | 0.39 µg/mL (≈ 0.618 µM) | ≤ 0.05 µg/mL | ≤ 0.05 µg/mL | ≤ 0.05 µg/mL | 1.56 µg/mL (≈ 2.47 µM) | > 25 µg/mL | ≤ 0.05 µg/mL | ≤ 0.05 µg/mL | ≤ 0.05 µg/mL | ≤ 0.05 µg/mL | ≤ 0.05 µg/mL | MIC (E. coli C/Rms149): ≤ 0.05 µg/mL; MIC (E. coli W3630/Rms212): ≤ 0.05 µg/mL; MIC (K. pneumoniae No. 42): 0.1 µg/mL (≈ 0.159 µM); MIC (E. cloaceae Nek 39): ≤ 0.05 µg/mL; antibacterial activity relative to the compound of Reference Example (A. calcoaceticus No. 14): at least 32 times; MIC (A. calcoaceticus No. 14): 0.2 µg/mL (≈ 0.317 µM); MIC (S. aureus NIHJJC-1): 25 µg/mL (≈ 39.6 µM)
5 | C[N+]1(CC2=C(C(=O)[O-])N3C(=O)C(NC(=O)C(=NOC4(C(=O)O)CCCC4)c4csc(N)n4)C3SC2)Cc2cc(O)c(O)cc2C1 (stereo not drawn) [Ex. 12-C, 7-[(Z)-2-(2-aminothiazol-4-yl)-2-(1-carboxy-1-cyclopentyloxyimino)acetamido]-3-(5,6-dihydroxy-2-methyl-2-isoindolinium)methyl-3-cephem-4-carbcxylate] | ≤ 0.05 µg/mL | at least 32 times | at least 32 times | 0.1 µg/mL (≈ 0.152 µM) | at least 16 times | ≤ 0.05 µg/mL | particularly strong antibacterial activities | at least twice as strong | 6.25 µg/mL (≈ 9.49 µM) | 0.39 µg/mL (≈ 0.592 µM) | 0.1 µg/mL (≈ 0.152 µM) | 0.1 µg/mL (≈ 0.152 µM) | 0.1 µg/mL (≈ 0.152 µM) | 1.56 µg/mL (≈ 2.37 µM) | > 25 µg/mL | ≤ 0.05 µg/mL | ≤ 0.05 µg/mL | ≤ 0.05 µg/mL | ≤ 0.05 µg/mL | ≤ 0.05 µg/mL | MIC (E. coli C/Rms149): ≤ 0.05 µg/mL; MIC (E. coli W3630/Rms212): ≤ 0.05 µg/mL; MIC (K. pneumoniae No. 42): 0.1 µg/mL (≈ 0.152 µM); MIC (E. cloaceae Nek 39): 0.1 µg/mL (≈ 0.152 µM); antibacterial activity relative to the compound of Reference Example (A. calcoaceticus No. 14): at least 32 times; MIC (A. calcoaceticus No. 14): 0.2 µg/mL (≈ 0.304 µM); MIC (S. aureus NIHJJC-1): 25 µg/mL (≈ 38 µM)

Source: patent US4677100A, “Cephalosporin derivatives” (Banyu Pharmaceutical Co., Ltd., priority 1984, dated 1987)
